Consider 6 compounds from DBAASP.

Test systems include Salmonella typhimurium; Fusarium verticillioides; Trichosporon beigelii; Botrytis cinerea; Saccharomyces cerevisiae; Pseudomonas aeruginosa; Staphylococcus aureus; Bacillus subtilis; Proteus vulgaris; Escherichia coli; Fusarium oxysporum; Ramulariopsis gossypii; Rhizoctonia solani; Trichoderma asperellum; Fusarium solani; Candida albicans; Streptococcus agalactiae.
Holding throughout (test): ≥ marks a high value that may be exact or a test limit, other limits are often not marked, values filed in µg/mL are converted to µM
Test [1] has as its system Pseudomonas aeruginosa ATCC 15692.
The subject of test [2] is Aspergillus fumigatus KCTC 6145.
The subject of test [3] is Staphylococcus epidermidis.
Test [4] deals with Escherichia coli ATCC 25922.
Test [5] relates to Listeria monocytogenes KCTC 3710.
Test [6] concerns Escherichia coli O157:H7 ATCC 43895.
For test [7], the system named is Bacillus subtilis KCTC 1998.
Test [8] has as its system Candida albicans KCTC 7270.
Test [9] has as its system Staphylococcus aureus ATCC 25923.
Test [10] concerns Aspergillus flavus KCTC 9471.
Test [11] has as its system Pseudomonas syringae pv. tabaci.
Test [12] relates to Pectobacterium carotovorum.
Test [13] relates to Fusarium oxysporum f.sp. vasinfectum.
For test [14], the system named is Xanthomonas campestris pv. citri.
Test [15] relates to Bacillus cereus ATCC 14579.
Test [16] deals with Cryptococcus neoformans ATCC 28957.
Test [17] relates to Pseudomonas aeruginosa ATCC 27853.
Test [18] deals with Bacillus subtilis ATCC 23857.
The subject of test [19] is Candida albicans ATCC 90028.
Test [20] concerns Acinetobacter calcoaceticus.
Test [21] concerns Escherichia coli ATCC 11775.
Test [22] concerns Escherichia coli ATCC 35218.
Test [23] concerns Salmonella enterica subsp. enterica serovar Typhi Vi+.
Test [24] deals with Salmonella enterica subsp. enterica serovar Typhimurium ATCC 14028.

In brackets after ≈: the same amount, converted by molar mass. Several values for one entry are separate records, joined by “and”; a condition that tells them apart may be missing. Equal entries are not always repeated.

Turning to `CC[C@H](C)[C@H](NC(=O)[C@H](CCCCN)NC(=O)[C@H](CO)NC(=O)[C@H](Cc1ccccc1)NC(=O)[C@H](CC(C)C)NC(=O)[C@H](CCCCN)NC(=O)[C@H](CCC(=O)O)NC(=O)[C@H](CC(C)C)NC(=O)[C@H](CCCN=C(N)N)NC(=O)[C@H](CCCCN)NC(=O)[C@H](Cc1ccccc1)NC(=O)[C@@H](NC(=O)[C@H](CCCCN)NC(=O)[C@H](CCCCN)NC(=O)[C@H](C)N)C(C)C)C(=O)N[C@@H](Cc1c[nH]c2ccccc12)C(=O)N[C@@H](CC(N)=O)C(=O)N[C@@H](Cc1c[nH]c2ccccc12)C(=O)N[C@@H](CCCCN)C(N)=O` [AKKVFKRLEKLFSKIWNWK], the MIC (as a rule, the least concentration at which growth counts as inhibited) in test [1] is 2 µM (≈ 4.9 µg/mL); in test [2], 25 µM (≈ 61.2 µg/mL); in the test with Salmonella typhimurium, 0.39 µM (≈ 0.955 µg/mL); against Fusarium verticillioides, 12.5 µM (≈ 30.6 µg/mL); in the test with Trichosporon beigelii it was 1.56 µM (≈ 3.82 µg/mL); in the test on Botrytis cinerea, 3.13 µM (≈ 7.67 µg/mL). In addition, the MIC was found to be 3.13 µM (≈ 7.67 µg/mL) in test [3]; 2 µM (≈ 4.9 µg/mL) in [4]; 0.39 µM (≈ 0.955 µg/mL) in [5]; 3.13 µM (≈ 7.67 µg/mL) in test [6]; 2 µM (≈ 4.9 µg/mL) in test [7]; 25 µM (≈ 61.2 µg/mL) in the test on Saccharomyces cerevisiae. In addition, the MIC is 12.5 µM (≈ 30.6 µg/mL) in test [8]; 3.13 µM (≈ 7.67 µg/mL) in the test on Pseudomonas aeruginosa; 1.56 µM and 3.13 µM in the test on Staphylococcus aureus; 1.56 µM (≈ 3.82 µg/mL) against Bacillus subtilis; 2 µM (≈ 4.9 µg/mL) in test [9]; 25 µM (≈ 61.2 µg/mL) in test [10]. In addition, the MIC against Proteus vulgaris was 3.13 µM (≈ 7.67 µg/mL); in the test with Escherichia coli it was 1.56 µM (≈ 3.82 µg/mL).
For `CSCC[C@H](NC(=O)[C@H](CCCCN)NC(=O)[C@H](Cc1ccc(O)cc1)NC(=O)[C@H](C)NC(=O)[C@H](CCC(=O)O)NC(=O)[C@H](CC(C)C)NC(=O)[C@H](CC(C)C)NC(=O)[C@H](CCCN=C(N)N)NC(=O)[C@H](CC(N)=O)NC(=O)[C@H](C)N)C(=O)N[C@@H](CC(C)C)C(=O)N[C@@H](CC(C)C)C(=O)N[C@@H](CCCCN)C(=O)N[C@@H](Cc1ccccc1)C(=O)N[C@@H](CC(C)C)C(=O)NCC(=O)N[C@@H](CC(N)=O)C(=O)N[C@@H](CC(C)C)C(=O)N[C@@H](CCCN=C(N)N)C(N)=O` [ANRLLEAYKMLLKFLGNLR], the MIC in [11] turned out to be 2 µM (≈ 4.53 µg/mL); in test [12], 1 µM (≈ 2.26 µg/mL); in test [13], 1.67 µM (≈ 3.78 µg/mL); in test [14], 4 µM (≈ 9.05 µg/mL); in the test with Fusarium oxysporum, 4 µM (≈ 9.05 µg/mL); in test [4], 4 µM (≈ 9.05 µg/mL). For the same compound, the MIC was determined as 2 µM (≈ 4.53 µg/mL) with Ramulariopsis gossypii; 4 µM (≈ 9.05 µg/mL) in [15]; 2.67 µM (≈ 6.04 µg/mL) in [16]; 4 µM (≈ 9.05 µg/mL) against Rhizoctonia solani; 4 µM (≈ 9.05 µg/mL) in the test with Trichoderma asperellum; 1 µM (≈ 2.26 µg/mL) in test [9]. Also, the MIC with Fusarium solani was 2 µM (≈ 4.53 µg/mL); in test [17], 32 µM (≈ 72.4 µg/mL); in test [18] it was 1 µM (≈ 2.26 µg/mL); in test [19] it was 4 µM (≈ 9.05 µg/mL).
In the case of `CC[C@H](C)[C@H](NC(=O)[C@H](C)NC(=O)[C@H](Cc1cnc[nH]1)NC(=O)[C@@H]1CCCN1C(=O)[C@@H](NC(=O)[C@H](CC(C)C)NC(=O)[C@H](CO)NC(=O)[C@H](CC(C)C)NC(=O)[C@@H](N)Cc1ccccc1)[C@@H](C)CC)C(=O)N[C@@H](CC(N)=O)C(=O)N[C@@H](C)C(=O)N[C@H](C(=O)N[C@@H](CO)C(=O)N[C@@H](C)C(=O)N[C@@H](CC(C)C)C(=O)N[C@@H](C)C(=O)N[C@@H](CC(N)=O)C(=O)N[C@@H](Cc1cnc[nH]1)C(=O)NCC(N)=O)C(C)C` [FLSLIPHAINAVSALANHG], the MIC is 8.2 µM (≈ 15.9 µg/mL) with Candida albicans; 32.8 µM (≈ 63.8 µg/mL) against Pseudomonas aeruginosa; 8.2 µM (≈ 15.9 µg/mL) against Staphylococcus aureus; 4.1 µM (≈ 7.97 µg/mL) in test [20]; 4.1 µM (≈ 7.97 µg/mL) against Streptococcus agalactiae.
For `CC[C@H](C)[C@H](NC(=O)[C@@H]1CCCN1C(=O)[C@H](CCCN=C(N)N)NC(=O)[C@@H]1CCCN1C(=O)[C@H](Cc1cnc[nH]1)NC(=O)[C@H](CO)NC(=O)[C@@H](NC(=O)[C@@H]1CCCN1C(=O)[C@H](CCCN=C(N)N)NC(=O)[C@@H]1CCCN1C(=O)[C@H](CO)NC(=O)[C@H](Cc1ccc(O)cc1)NC(=O)[C@@H]1CCCN1C(=O)[C@H](CCCCN)NC(=O)[C@@H]1CCCN1C(=O)[C@H](CCCCN)NC(=O)CN)[C@@H](C)O)C(=O)N[C@@H](CCCN=C(N)N)C(=O)N[C@H](C(=O)O)C(C)C` [GKPKPYSPRPTSHPRPIRV], the MIC was 1.1 µM (≈ 2.39 µg/mL) in test [21]; 0.6 µM (≈ 1.3 µg/mL) in [22]; 1.5 µM (≈ 3.26 µg/mL) in [4]; 4 µM (≈ 8.68 µg/mL) in test [23]; 4 µM (≈ 8.68 µg/mL) in test [24].
As for `CC[C@H](C)[C@H](NC(=O)[C@@H]1CCCN1C(=O)[C@H](CCCCN)NC(=O)[C@@H]1CCCN1C(=O)[C@H](Cc1cnc[nH]1)NC(=O)[C@H](CO)NC(=O)[C@@H](NC(=O)[C@@H]1CCCN1C(=O)[C@H](CCCN=C(N)N)NC(=O)[C@@H]1CCCN1C(=O)[C@H](CO)NC(=O)[C@H](Cc1ccc(O)cc1)NC(=O)[C@@H]1CCCN1C(=O)[C@H](CCCN=C(N)N)NC(=O)[C@@H]1CCCN1C(=O)[C@H](CCCCN)NC(=O)CN)[C@@H](C)O)C(=O)N[C@@H](CCCN=C(N)N)C(=O)N[C@H](C(=O)O)C(C)C` [GKPRPYSPRPTSHPKPIRV], the MIC worked out at 6 µM (≈ 13 µg/mL) in test [21]; 3.5 µM (≈ 7.6 µg/mL) in [22]; 7 µM (≈ 15.2 µg/mL) in test [4]; 30 µM (≈ 65.1 µg/mL) in test [23]; 25 µM (≈ 54.3 µg/mL) in test [24].
Turning to `CSCC[C@H](NC(=O)[C@H](Cc1ccccc1)NC(=O)CNC(=O)[C@H](Cc1cnc[nH]1)NC(=O)[C@H](CC(C)C)NC(=O)[C@H](CO)NC(=O)CN)C(=O)N[C@@H](Cc1ccc(O)cc1)C(=O)N[C@@H](CCCCN)C(=O)N[C@@H](Cc1ccc(O)cc1)C(=O)N[C@@H](CC(C)C)C(=O)N[C@@H](CCCCN)C(=O)N[C@@H](CC(N)=O)C(=O)N[C@@H](CCSC)C(=O)N[C@H](C(=O)N[C@@H](CC(C)C)C(=O)N[C@H](C(=O)N[C@@H](CC(C)C)C(=O)N[C@@H](Cc1ccccc1)C(N)=O)[C@@H](C)O)C(C)C` [GSLHGFMYKYLKNMVLTLF], the MIC in test [11] was 16 µM (≈ 36.2 µg/mL); in test [12], not below 256 µM; in [13], 8 µM (≈ 18.1 µg/mL); in test [14], not below 128 µM; against Fusarium oxysporum it was 16 µM (≈ 36.2 µg/mL); in test [4], 64 µM (≈ 145 µg/mL). Besides, the MIC against Ramulariopsis gossypii was 4 µM (≈ 9.05 µg/mL); in [15], not below 128 µM; in [16], 16 µM (≈ 36.2 µg/mL); in the test on Trichoderma asperellum, 8 µM (≈ 18.1 µg/mL); in test [9], 16 µM (≈ 36.2 µg/mL); in the test with Fusarium solani it was not below 32 µM. Further, the MIC in test [17] was 32 µM (≈ 72.4 µg/mL); in [18], 16 µM (≈ 36.2 µg/mL); in [19], 16 µM (≈ 36.2 µg/mL).
